Results on four compounds are retold here after patent publication US20130217664A1, “NOVEL COMPOUNDS USEFUL FOR THE TREATMENT OF DEGENERATIVE AND INFLAMMATORY DISEASES” (priority 2012, published 2013).

One assay addresses T1, human JAK1 (Homo sapiens, UniProt P23458).
T1 construct: catalytic domain, amino acids 866-1154; catalog number PV4774; purchased Invitrogen PV4774
The experiment in a line: JAK1 inhibition assay (polyGT substrate / Ulight-JAK1 peptide). The assay is classed as biochemical. The note with it: recombinant human JAK1 catalytic domain; polyGT or Ulight-JAK1 peptide assay. Summed up:
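Signal scaled between vehicle and 10 μM staurosporine. Radiometric polyGT reactions ran 45 min at 30 °C, counted after phosphoric-acid stop. Ulight peptide reactions ran 60 min at room temperature, fluorescence read after adding Eu-PT66 detection mix with EDTA.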

The target of a further assay is T2, human JAK3 (Homo sapiens, UniProt P52333).
T2 construct: catalytic domain (amino acids 781-1124; catalog number PV3855); purchased Invitrogen PV3855
T2 sequence (P52333 781-1124): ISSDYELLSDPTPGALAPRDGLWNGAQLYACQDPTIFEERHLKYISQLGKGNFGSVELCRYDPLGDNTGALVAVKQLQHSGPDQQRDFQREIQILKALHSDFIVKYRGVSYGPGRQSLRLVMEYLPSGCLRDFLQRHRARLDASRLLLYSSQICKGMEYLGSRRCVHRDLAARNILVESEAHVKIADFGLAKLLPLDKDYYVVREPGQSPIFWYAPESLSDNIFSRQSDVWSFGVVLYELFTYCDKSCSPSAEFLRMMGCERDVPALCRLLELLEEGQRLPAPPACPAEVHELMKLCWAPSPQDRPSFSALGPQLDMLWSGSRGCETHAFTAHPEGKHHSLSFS
Put plainly: JAK3 inhibition assay. Type of assay: biochemical. The settings on record: recombinant human JAK3 catalytic domain; polyGT substrate. Summed up: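 Radiometric kinase assay: 0.5 ng JAK3 with 2.5 μg polyGT in Tris pH 7.5/MgCl2 buffer, 1 μM ATP plus 0.25 μCi 33P-γ-ATP, 1% DMSO, 45 min at 30 °C, stopped with phosphoric acid.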

The target in a further assay is T3, human TYK2 (Homo sapiens, UniProt P29597).
T3 construct: catalytic domain (amino acids 871-1187; catalog number 08-147); purchased Carna Biosciences 08-147
T3 sequence (P29597 871-1187): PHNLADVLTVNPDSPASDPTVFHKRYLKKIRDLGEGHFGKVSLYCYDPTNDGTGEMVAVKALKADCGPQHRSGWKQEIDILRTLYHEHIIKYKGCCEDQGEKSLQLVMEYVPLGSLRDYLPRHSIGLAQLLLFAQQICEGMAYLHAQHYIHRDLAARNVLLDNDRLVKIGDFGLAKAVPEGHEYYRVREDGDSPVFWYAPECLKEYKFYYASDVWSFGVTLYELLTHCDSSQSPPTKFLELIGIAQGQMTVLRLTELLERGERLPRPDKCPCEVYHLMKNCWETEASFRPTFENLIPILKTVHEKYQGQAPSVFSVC
Put plainly: TYK2 inhibition assay. The assay is classed as biochemical. The note with it: recombinant human TYK2 catalytic domain, polyGT substrate. The procedure, abridged:
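Radiometric kinase reaction run 90 min at 30 °C, stopped with phosphoric acid, washed and scintillation-counted.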

In assay [1] the test system is pSTAT1(2)-luciferase reporter in HeLa cells triggered with human OSM. The experiment in a line: JAK-STAT signalling assay. The assay is classed as cell-based. The settings on record: HeLa cells, pSTAT1(2)-luciferase reporter, human OSM 33 ng/mL, read-out: JAK-STAT IC50. Summed up: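 Compound added 60 min before 33 ng/mL (final) human OSM; after overnight stimulation at 37 °C, luciferase signal from a transiently transfected pSTAT1(2) reporter in HeLa cells was read, with LacZ as internal control. EC50 derived from percent-inhibition dose-response curves.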
For orientation: A reporter such as luciferase makes a cellular process visible.

In another assay the test system is CTLL-2 cell line. The experiment in a line: CTLL2 viability assay. The assay is classed as cell-based. The note with it: Mus musculus, IL-2 dependent CTLL2 viability, 24 h, ATP-lite. An excerpt: The protocol describes the methods to analyse the activity of compounds on their ability to sustain the IL2-dependent viability of CTLL2.
Final DMSO concentration was 0.1%.

A further assay concerns BA/F3 cell line. Put plainly: BA/F3 viability assay. The settings on record: Mus musculus, BaF3, 48 h, read-out: BA/F3 IC50.

Read-outs that look alike come from different tables or passages of the source.

T1 sequence (P23458 866-1154): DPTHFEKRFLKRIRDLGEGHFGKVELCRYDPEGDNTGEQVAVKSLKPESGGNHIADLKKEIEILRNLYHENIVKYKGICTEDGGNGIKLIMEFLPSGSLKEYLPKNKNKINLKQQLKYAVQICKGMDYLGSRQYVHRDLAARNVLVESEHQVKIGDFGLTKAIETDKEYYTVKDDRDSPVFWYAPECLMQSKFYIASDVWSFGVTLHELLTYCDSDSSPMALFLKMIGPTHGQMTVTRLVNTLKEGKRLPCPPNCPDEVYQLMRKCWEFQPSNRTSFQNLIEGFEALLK

As to `CCc1cc(CNC(=O)C(F)F)ccc1N(C)c1cc2c(cn1)ncn2C` [Compound 256, N-(3-ethyl-4-(methyl(1-methyl-1H-imidazo[4,5-c]pyridin-6-yl)amino)benzyl)-2,2-difluoroacetamide], the IC50 was 0.01 to 100 nM on human JAK1; 0.01 to 100 nM on human JAK3; 101 to 500 nM on human TYK2; 1 to 500 nM in assay [1] (Homo sapiens, HeLa); over 1000 nM in the assay with CTLL-2 cell line; over 5000 nM in the assay on BA/F3 cell line.
In the case of `CCc1cc(CN2CCCS2(=O)=O)ccc1N(C)c1cc2c(cn1)ncn2C` [Compound 262, [4-(1,1-Dioxoisothiazolidin-2-ylmethyl)-2-ethyl-phenyl]-methyl-(1-methyl-1H-imidazo[4,5-c]pyridin-6-yl)-amine], the IC50 is 0.01 to 100 nM on human JAK1; 101 to 500 nM at human JAK3; 101 to 500 nM at human TYK2; 1 to 500 nM in assay [1]; over 1000 nM in the assay with CTLL-2 cell line; 1000 to 5000 nM with BA/F3 cell line.
As to `CN(c1cc2c(cn1)ncn2C)c1ccc(-c2cnn(C)c2)cc1OC(F)F` [Compound 274, N-(2-(Difluoromethoxy)-4-(1-methyl-1H-pyrazol-4-yl)phenyl)-N,1-dimethyl-1H-imidazo[4,5-c]pyridin-6-amine], the IC50 was 0.01 to 100 nM at human JAK1; 101 to 500 nM at human JAK3; 0.01 to 100 nM on human TYK2; 1 to 500 nM in assay [1]; over 1000 nM with CTLL-2 cell line; 1000 to 5000 nM in the assay with BA/F3 cell line.
With `CCc1cc(-c2cnn(C)c2)ncc1N(C)c1cc2c(cn1)ncn2C` [Compound 280, N-(4-Ethyl-6-(1-methyl-1H-pyrazol-4-yl)pyridin-3-yl)-N,1-dimethyl-1H-imidazo[4,5-c]pyridin-6-amine], the IC50 at human JAK1 is 0.01 to 100 nM; at human JAK3 it was over 1000 nM; on human TYK2, 101 to 500 nM; in assay [1], over 1000 nM; in the assay with CTLL-2 cell line, over 1000 nM; in the assay with BA/F3 cell line, over 5000 nM.
